Legend:
Foc TR4 chlamydospores = assay: Efficacy of metam sodium on chlamydospores of Foc TR4 in vitro (colonies on PDA plates); assay type: cell-based, Fusarium oxysporum f. sp. Cubense Tropical Race 4
Experimental: Foc TR4 chlamydospores were extracted from infested soil and incubated with a dilution series of metam sodium for 5 min and 60 min at room temperature. Thereafter, the samples were diluted 10X to get reduction of the treatment and sufficient dilution of chlamydospores to avoid lack of resolution when grown on plate. Aliquots of 100 µl were plated on PDA plates in duplicate and incubated for 3 days at 25° C. Plates were photographed and scored.

Cavendish banana plants = assay: Musa field soil injection of metam sodium at 30 cm and 60 cm: banana plant growth and stage; assay type: in vivo
Experimental: (§1) Metam Sodium Application. Metam sodium 510 SL (equivalent to 42% w/w) was applied to soil at the following doses: 0 liters per hectare (L/ha), 750 L/ha, 1500 L/ha, 2250 L/ha, 3000 L/ha.
(§2) Prior to injection, soil was prepared using a rototiller to break the soil structure from 0 cm to 80 cm deep, allowing for the smooth and even injection application by an injection machine. The soil was then leveled and made uniform, and the metam sodium was applied at two depths: 30 cm and 60 cm, using injection methods. The temperature was at a minimum of 10° C. and soil humidity was between 50 and 60% holding capacity, allowing the applied product to transform from metam sodium (liquid) to MITC (gas).
(§3) The application was made using an injection machine wherein the machine lowered shanks and began moving forward such that the shanks lowered to a depth of 60 cm and injectors applied the metam sodium into the soil. When the injection at 60 cm was complete, the process was repeated for the entire field at 30 cm. The treated soil in the field was then sealed using a packer roller (which was part of the injection machinery, located at the back end of the machine), after each application.
Plant Selection and Transplantation. Cavendish banana plants were used for this investigation. In order to avoid plants already contaminated by other soil, all plants were produced in vitro using art-recognized methods. Plants were transplanted into the field 14 days after the final soil reading was taken (21 days after treatment).
Data Gathering. Data were gathered at monthly intervals beginning three months after banana plants were transplanted. A total of three data collection sessions were conducted. Data including the number of leaves, plant height, and girth size were collected.

[1] = tested on: F. oxysporum f. sp. cubense (Foc TR4); assay: Panama disease analysis of soil samples after metam sodium field injection; assay type: in vivo, Fusarium oxysporum f. sp. Cubense Tropical Race 4
Experimental: as §1, §2, §3
Soil Analysis. Soil samples were obtained at 20, 40, and 60 cm before application and every 24 hours beginning 48 hours after application, for seven days.
Plant Pathology Analysis. Soil samples used for Panama Disease and nematode analyses were aseptically isolated in culture medium and incubated for seven days at room temperature. Organisms were identified as follows: 20 grams of composite soil sample was diluted with 40 mL distilled water (dH2O); 1 drop of Tween 20 detergent was added, and the sample mixed. A 1 mL aliquot was taken from the solution and diluted with 9 mL dH2O; three further serial dilutions were made. From each dilution, 100 µL were spread on solid Komada growth medium (Sun et al., Phytopathology 68: 1672-1673, 1978). Growth could be seen 7 days after inoculation.

[2] = 750 L/ha, six months after treatment
[3] = 1500 L/ha, six months after treatment
[4] = 2250 L/ha, six months after treatment
[5] = 3000 L/ha, six months after treatment

CNC(=S)[S-].[Na+] [metam sodium, sodium N-methyldithiocarbamate]
reducing the number of surviving chlamydospores, measured as growing colonies (Foc TR4 chlamydospores; 100X dilution, prolonged incubation (60 min vs 5 min)): more effective | reduction in viability of Foc TR4 chlamydospores (Foc TR4 chlamydospores; First test, dilutions from 1000 up to 10 X 10^6-fold, 60 min): No significant reduction in viability | efficacy on chlamydospores (colonies on PDA plates) (Foc TR4 chlamydospores; Second test, 10X and 100X dilutions): (partially) effective | number of chlamydospores that survived (Foc TR4 chlamydospores; Second test, dilutions of 1000X and more): did not affect | efficacy on chlamydospores (colonies on PDA plates) (Foc TR4 chlamydospores; dilution of 10X, incubation time 5 minutes): effective | efficacy on chlamydospores (colonies on PDA plates) (Foc TR4 chlamydospores; dilution of 100X, both 5 and 60 minutes): less effective | effectiveness against Foc TR4 chlamydospores (Foc TR4 chlamydospores; in vitro conditions, dependent on high concentrations): effective | effect on average girth size of banana plant (Cavendish banana plants; 750 L/ha): ~ 1 cm | increase in average height of banana plant (Cavendish banana plants; 750 L/ha): ~ 5 cm | effect on plants reaching bagging stage (Cavendish banana plants; [2]): did not have a meaningful effect | percent of plants at either shooting or bagging stage (Cavendish banana plants; [2]): 11% | percent of plants at shooting stage (Cavendish banana plants; [2]): 9% | increase in average girth size of banana plant (Cavendish banana plants; 1500-3000 L/ha): 4-6 cm | increase in average height of banana plant (Cavendish banana plants; 1500-3000 L/ha): 20-23 cm | percent of plants at either shooting or bagging stage (Cavendish banana plants; [3]): 28% | percent of plants at shooting stage (Cavendish banana plants; [3]): 10% | percent of plants at bagging stage (Cavendish banana plants; 1500 to 3000 L/ha, six months after treatment): 11-19% | percent of plants at either shooting or bagging stage (Cavendish banana plants; [4]): 27% | percent of plants at shooting stage (Cavendish banana plants; [4]): 17% | percent of plants at either shooting or bagging stage (Cavendish banana plants; [5]): 35% | percent of plants at shooting stage (Cavendish banana plants; [5]): 22% | leaf increase (average number of leaves per banana plant) (Cavendish banana plants; regardless of dose applied): roughly 1.5 fold | Panama Disease F. oxysporum f. sp. cubense ([1]; Day 1, 20 cm, T2 750 L/ha): - | Panama Disease F. oxysporum f. sp. cubense ([1]; Day 1, 20 cm, T3 1500 L/ha): - | Panama Disease F. oxysporum f. sp. cubense ([1]; Day 1, 20 cm, T4 2250 L/ha): - | Panama Disease F. oxysporum f. sp. cubense ([1]; Day 1, 20 cm, T5 3000 L/ha): - | Panama Disease F. oxysporum f. sp. cubense ([1]; Day 1, 40 cm, T2 750 L/ha): - | Panama Disease F. oxysporum f. sp. cubense ([1]; Day 1, 40 cm, T3 1500 L/ha): - | Panama Disease F. oxysporum f. sp. cubense ([1]; Day 1, 40 cm, T4 2250 L/ha): - | Panama Disease F. oxysporum f. sp. cubense ([1]; Day 1, 40 cm, T5 3000 L/ha): - | Panama Disease F. oxysporum f. sp. cubense ([1]; Day 1, 60 cm, T2 750 L/ha): - | Panama Disease F. oxysporum f. sp. cubense ([1]; Day 1, 60 cm, T3 1500 L/ha): - | Panama Disease F. oxysporum f. sp. cubense ([1]; Day 1, 60 cm, T4 2250 L/ha): - | Panama Disease F. oxysporum f. sp. cubense ([1]; Day 1, 60 cm, T5 3000 L/ha): - | Panama Disease F. oxysporum f. sp. cubense ([1]; Day 2, 20 cm, T2 750 L/ha): - | Panama Disease F. oxysporum f. sp. cubense ([1]; Day 2, 20 cm, T3 1500 L/ha): - | Panama Disease F. oxysporum f. sp. cubense ([1]; Day 2, 20 cm, T4 2250 L/ha): - | Panama Disease F. oxysporum f. sp. cubense ([1]; Day 2, 20 cm, T5 3000 L/ha): - | Panama Disease F. oxysporum f. sp. cubense ([1]; Day 2, 40 cm, T2 750 L/ha): - | Panama Disease F. oxysporum f. sp. cubense ([1]; Day 2, 40 cm, T3 1500 L/ha): - | Panama Disease F. oxysporum f. sp. cubense ([1]; Day 2, 40 cm, T4 2250 L/ha): - | Panama Disease F. oxysporum f. sp. cubense ([1]; Day 2, 40 cm, T5 3000 L/ha): - | Panama Disease F. oxysporum f. sp. cubense ([1]; Day 2, 60 cm, T2 750 L/ha): - | Panama Disease F. oxysporum f. sp. cubense ([1]; Day 2, 60 cm, T3 1500 L/ha): - | Panama Disease F. oxysporum f. sp. cubense ([1]; Day 2, 60 cm, T4 2250 L/ha): - | Panama Disease F. oxysporum f. sp. cubense ([1]; Day 2, 60 cm, T5 3000 L/ha): - | Panama Disease F. oxysporum f. sp. cubense ([1]; Day 3, 20 cm, T2 750 L/ha): - | Panama Disease F. oxysporum f. sp. cubense ([1]; Day 3, 20 cm, T3 1500 L/ha): - | Panama Disease F. oxysporum f. sp. cubense ([1]; Day 3, 20 cm, T4 2250 L/ha): - | Panama Disease F. oxysporum f. sp. cubense ([1]; Day 3, 20 cm, T5 3000 L/ha): - | Panama Disease F. oxysporum f. sp. cubense ([1]; Day 3, 40 cm, T2 750 L/ha): - | Panama Disease F. oxysporum f. sp. cubense ([1]; Day 3, 40 cm, T3 1500 L/ha): - | Panama Disease F. oxysporum f. sp. cubense ([1]; Day 3, 40 cm, T4 2250 L/ha): -

From US20230157296A1, “METHODS OF REDUCING FUSARIUM CONTAMINATION” (Taminco BV, priority 2020, published 2023)
